According to the Deep4Chem optical property database:
Several values for one entry are separate records, joined by “and”; a condition that tells them apart may be missing. Identical values can stand only once. Blank lines part the entries; values can stand above or below the compound they belong to.

Assay: solvent given as SMILES

SMILES: c1ccc(-c2nc(-c3ccccc3)nc(-c3ccc(-n4c5ccccc5c5cc6c7ccccc7n7c8ccccc8c(c54)c67)cc3)n2)cc1
emission maximum (in Cc1ccccc1): 450 nm
emission maximum (in O=P(c1ccccc1)(c1ccccc1)c1ccc2oc3ccc(P(=O)(c4ccccc4)c4ccccc4)cc3c2c1): 460 nm

SMILES: N#CC(C#N)=Cc1ccc(-c2ccc(-c3nc4ccccc4s3)c(O)c2)o1
emission maximum (in CCO): 501 nm
emission maximum (in ClCCl): 502 nm
emission maximum (in O): 596 nm

SMILES: C[Si](C)(c1ccc2cc3ccccc3cc2c1)[Si](C)(C)c1ccc2cc3ccccc3cc2c1
emission maximum (in C1CCCCC1): 415 nm
emission maximum (in CC#N): 413 nm

SMILES: Nc1ccc2c(C(F)(F)F)cc(=O)oc2c1
emission maximum (in C1CCC2CCCCC2C1): 404 nm
emission maximum (in C1CCCCC1): 401 nm
emission maximum (in C1COCCO1): 442 nm
emission maximum (in CC1CCCCC1): 401 nm
emission maximum (in CC#N): 465 nm and 461 nm
emission maximum (in CC(C)=O): 466 nm
emission maximum (in CC(C)O): 481 nm
emission maximum (in CCC(C)CC): 400 nm
emission maximum (in CCCC(C)C): 399 nm
emission maximum (in CCCCCC): 401 nm
emission maximum (in CCCCCCCCO): 480 nm
emission maximum (in CCCCCCO): 481 nm
emission maximum (in CCCCO): 484 nm
emission maximum (in CCO): 485 nm
emission maximum (in CCOC(C)=O): 456 nm
emission maximum (in CN(C)C=O): 480 nm
emission maximum (in CO): 487 nm
emission maximum (in CS(C)=O): 487 nm

SMILES: CCN(CC)c1ccc2c(-c3ccccc3C(=O)O)c3c([o+]c2c1)/C(=C/c1ccc(N2CCCC2)s1)CCC3
emission maximum (in ClCCl): 770 nm

SMILES: CCCCN(CCCC)c1ccc(/C=C/c2ccc3nc(-c4ccccc4)c(/C=C/c4ccc(N(C)C)cc4)nc3c2)cc1
emission maximum (in C1COCCO1): 540 nm
emission maximum (in CC#N): 650 nm
emission maximum (in ClCCl): 627 nm

SMILES: COC(=O)/C(C#N)=c1\s/c(=c2/s/c(=C(/C#N)C(=O)OC)c3cc(-c4ccc5c(c4)C(C)(C)c4ccccc4-5)sc23)c2sc(-c3ccc4c(c3)C(C)(C)c3ccccc3-4)cc12
emission maximum (in Cc1ccccc1): 682 nm

SMILES: COc1ccc(C2=[N+]3C(=Nc4c5c6ccccc6c6ccc(C(C)(C)C)cc6c5c(-c5ccc(OC)cc5)n4[B-]3(F)F)c3c2c2cc(C(C)(C)C)ccc2c2ccccc32)cc1
emission maximum (in Cc1ccccc1): 741 nm

SMILES: CCOC(=O)/C(C#N)=C\c1ccc2c(c1)c1ccccc1n2-c1ccc(OC)cc1
emission maximum (in C1CCOC1): 460 nm
emission maximum (in CC#N): 522 nm
emission maximum (in CC(C)=O): 508 nm
emission maximum (in CCOC(C)=O): 479 nm
emission maximum (in CO): 532 nm
emission maximum (in CS(C)=O): 542 nm
emission maximum (in Cc1ccccc1): 455 nm
emission maximum (in ClC(Cl)Cl): 486 nm

SMILES: O=Cc1ccc(C#CC(C#Cc2ccc(C=O)o2)=Cc2ccc(C=C(C#Cc3ccc(C=O)o3)C#Cc3ccc(C=O)o3)s2)o1
emission maximum (in ClC(Cl)Cl): 577 nm

SMILES: CC(C)[Si](C#Cc1c2nsnc2c(C#C[Si](C(C)C)(C(C)C)C(C)C)c2nc3c4ccccc4c(=O)c4ccccc4c3nc12)(C(C)C)C(C)C
emission maximum (in ClCCl): 594 nm

Now from value to compound:

emission maximum (in ClCCl): 608 nm
SMILES: CCOC(=O)CCCCCn1c2ccc(N)cc2c(=O)c2cc3c(cc21)c(=O)c1cc(N)ccc1n3CCCCCC(=O)OCC

emission maximum (in CCO): 439 nm
SMILES: O=c1c2cc(F)c(O)cc2oc2cc(O)c(F)cc12

emission maximum (in C1CCCCC1): 630 nm
emission maximum (in CCOC(C)=O): 665 nm
SMILES: CC1=[N+]2C(=C(Oc3ccccc3)c3ccc(C)n3[B-]2(F)F)C=C1c1cc2n(c1)[B-](F)(F)[N+]1=CC=CC1=C2c1c(C)cc(C)cc1C

emission maximum (in CS(C)=O): 379.1 nm
SMILES: c1ccc2[nH]c(-c3cc(-c4nc5ccccc5[nH]4)cc(-c4nc5ccccc5[nH]4)c3)nc2c1

emission maximum (in ClCCl): 542 nm
SMILES: CCC1=C(C)C2=C(/C=C/c3ccc(OC)cc3)c3c(C)c(CC)c(C)n3[B-](F)(F)[N+]2=C1C

emission maximum (in CC#N): 603 nm
emission maximum (in CCO): 593 nm
emission maximum (in CN(C)C=O): 608 nm
emission maximum (in O): 604 nm
SMILES: O=C([O-])c1ccccc1C1=c2cc3c4c(c2Oc2c1cc1c5c2CCCN5CCC1)CCC[N+]=4CCC3

emission maximum (in ClCCl): 616 nm
SMILES: O=C1c2ccccc2-c2nc3c4ccccc4c4ccccc4c3n21

emission maximum (in ClC(Cl)Cl): 542 nm
SMILES: CCCCN1C(=O)c2ccc3c4c(Br)cc5c6c(ccc(c7c(Br)cc(c2c37)C1=O)c64)C(=O)N(CCCC)C5=O

emission maximum (in c1cc(-c2cccc(-n3c4ccccc4c4ccccc43)c2)cc(-n2c3ccccc3c3ccccc32)c1): 446 nm
SMILES: Cc1cc(-c2nc(-c3ccccc3)nc(-c3ccccc3)n2)c(C)cc1-c1ccc2c(c1)C1(c3ccccc3-c3ccccc31)c1ccccc1N2c1ccccc1

emission maximum (in ClCCl): 494 nm
SMILES: CCCc1ccc(C#Cc2cc(C#Cc3ccc(CCC)cc3)c3ccc4c(C#Cc5ccc(CCC)cc5)cc(C#Cc5ccc(CCC)cc5)c5ccc2c3c54)cc1

emission maximum (in ClCCl): 456 nm
SMILES: CCOC(=O)C1=C(C(=O)OCC)C2(c3cc(Cl)ccc3-c3ccc(Cl)cc32)C2(/C=C/c3ccccc3)c3cc(OC)c(OC)cc3CCN12 (stereo unspecified)
